Assay results taken from patent US11787785B2 (NOVARTIS AG, priority 2021, dated 2023).
Read-outs that look alike come from different tables or passages of the source.

Target: T1, WIZ protein (HiBit-WIZ fusion protein) (Homo sapiens, UniProt O95785+Q96SW2)
T1 construct: expressed in transfected cells
Test: Quantification of WIZ protein levels in HiBit tag fusion protein assay (WIZ HiBit assay in 293T cells)
Assay type: cell-based
Design: remaining activity / Dmax: dose or concentration left out as unconfirmed
Outline: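 Luminescence after LgBit complementation quantified remaining HiBit-WIZ in lysates of single-copy stable 293T lines. Cells dosed ~18 h at 37 °C with 10-point, 5-fold dilutions (highest 25 μM); DMSO set to 100%, fitted curve gave % remaining at 25 μM (Amax).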

[1] = HEK-293T, 100 − Amax, at 25 uM; 293T cells; read-out: % degradation of WIZ (100 − Amax)
[2] = HEK-293T, DMSO-normalized, curve-fitted percentage of WIZ-HiBit remaining at 25 uM; 293T cells; read-out: WIZ Amax
[3] = WIZ HiBit assay in 293T cells; 10-point, 5-fold dose response, highest concentration 25 μM, about 18 hours; read-out: WIZ AC50

T1 sequence (O95785 whole entry, the tested form may be a part): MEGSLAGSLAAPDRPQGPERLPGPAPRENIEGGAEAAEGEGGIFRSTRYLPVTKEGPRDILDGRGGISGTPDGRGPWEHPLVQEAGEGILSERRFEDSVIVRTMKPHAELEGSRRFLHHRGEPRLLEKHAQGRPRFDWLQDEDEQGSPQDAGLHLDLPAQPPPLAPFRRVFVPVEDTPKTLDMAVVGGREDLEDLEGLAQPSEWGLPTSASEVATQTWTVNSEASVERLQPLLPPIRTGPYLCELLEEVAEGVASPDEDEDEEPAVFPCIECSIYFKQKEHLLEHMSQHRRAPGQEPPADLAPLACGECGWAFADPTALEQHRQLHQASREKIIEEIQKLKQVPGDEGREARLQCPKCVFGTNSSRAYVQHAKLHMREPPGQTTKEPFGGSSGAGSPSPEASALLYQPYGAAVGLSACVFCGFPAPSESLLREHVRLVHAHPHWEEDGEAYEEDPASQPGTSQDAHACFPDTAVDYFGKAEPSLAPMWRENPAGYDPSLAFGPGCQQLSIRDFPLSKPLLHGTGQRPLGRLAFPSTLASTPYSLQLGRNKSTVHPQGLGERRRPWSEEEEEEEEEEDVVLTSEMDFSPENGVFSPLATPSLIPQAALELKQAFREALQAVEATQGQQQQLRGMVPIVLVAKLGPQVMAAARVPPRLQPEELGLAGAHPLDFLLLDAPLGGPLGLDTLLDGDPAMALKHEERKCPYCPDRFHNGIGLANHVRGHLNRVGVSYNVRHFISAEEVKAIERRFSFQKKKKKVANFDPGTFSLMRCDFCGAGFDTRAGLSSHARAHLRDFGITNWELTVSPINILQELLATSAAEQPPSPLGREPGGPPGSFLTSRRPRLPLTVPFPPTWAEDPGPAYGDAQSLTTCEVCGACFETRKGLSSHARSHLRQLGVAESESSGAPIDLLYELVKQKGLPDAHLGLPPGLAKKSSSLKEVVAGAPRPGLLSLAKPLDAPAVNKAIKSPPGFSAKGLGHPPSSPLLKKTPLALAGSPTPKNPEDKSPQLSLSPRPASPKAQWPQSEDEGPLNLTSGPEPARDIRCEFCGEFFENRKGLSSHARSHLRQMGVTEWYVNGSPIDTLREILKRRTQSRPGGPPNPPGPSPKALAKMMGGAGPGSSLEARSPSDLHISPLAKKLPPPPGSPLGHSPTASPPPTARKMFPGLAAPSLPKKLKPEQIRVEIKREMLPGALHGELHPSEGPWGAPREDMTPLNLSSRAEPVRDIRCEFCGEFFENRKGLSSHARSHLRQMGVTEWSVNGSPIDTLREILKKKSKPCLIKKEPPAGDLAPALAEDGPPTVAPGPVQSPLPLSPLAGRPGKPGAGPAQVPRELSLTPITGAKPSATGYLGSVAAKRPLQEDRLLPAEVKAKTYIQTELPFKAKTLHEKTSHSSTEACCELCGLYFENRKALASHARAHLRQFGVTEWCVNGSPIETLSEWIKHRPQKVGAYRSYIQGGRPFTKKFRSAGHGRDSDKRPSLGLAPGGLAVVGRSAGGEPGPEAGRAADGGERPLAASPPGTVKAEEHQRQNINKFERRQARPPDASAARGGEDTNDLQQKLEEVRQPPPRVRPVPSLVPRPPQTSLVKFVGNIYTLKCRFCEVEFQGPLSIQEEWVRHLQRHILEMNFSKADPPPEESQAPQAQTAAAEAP
T1 sequence (Q96SW2 whole entry, the tested form may be a part): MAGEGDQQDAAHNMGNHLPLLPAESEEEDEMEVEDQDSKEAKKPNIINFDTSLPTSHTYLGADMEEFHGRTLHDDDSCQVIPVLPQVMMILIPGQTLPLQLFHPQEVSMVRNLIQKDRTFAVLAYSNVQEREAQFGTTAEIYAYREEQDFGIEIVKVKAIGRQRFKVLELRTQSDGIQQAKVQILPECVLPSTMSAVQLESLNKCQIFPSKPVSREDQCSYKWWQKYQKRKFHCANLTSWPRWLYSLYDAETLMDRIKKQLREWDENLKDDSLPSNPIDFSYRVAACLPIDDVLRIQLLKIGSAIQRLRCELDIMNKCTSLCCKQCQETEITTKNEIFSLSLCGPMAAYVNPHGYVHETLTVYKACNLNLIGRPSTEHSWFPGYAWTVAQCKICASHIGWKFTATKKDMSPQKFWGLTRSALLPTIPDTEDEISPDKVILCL
T1 sequence (Q16531 whole entry partner, the tested form may be a part): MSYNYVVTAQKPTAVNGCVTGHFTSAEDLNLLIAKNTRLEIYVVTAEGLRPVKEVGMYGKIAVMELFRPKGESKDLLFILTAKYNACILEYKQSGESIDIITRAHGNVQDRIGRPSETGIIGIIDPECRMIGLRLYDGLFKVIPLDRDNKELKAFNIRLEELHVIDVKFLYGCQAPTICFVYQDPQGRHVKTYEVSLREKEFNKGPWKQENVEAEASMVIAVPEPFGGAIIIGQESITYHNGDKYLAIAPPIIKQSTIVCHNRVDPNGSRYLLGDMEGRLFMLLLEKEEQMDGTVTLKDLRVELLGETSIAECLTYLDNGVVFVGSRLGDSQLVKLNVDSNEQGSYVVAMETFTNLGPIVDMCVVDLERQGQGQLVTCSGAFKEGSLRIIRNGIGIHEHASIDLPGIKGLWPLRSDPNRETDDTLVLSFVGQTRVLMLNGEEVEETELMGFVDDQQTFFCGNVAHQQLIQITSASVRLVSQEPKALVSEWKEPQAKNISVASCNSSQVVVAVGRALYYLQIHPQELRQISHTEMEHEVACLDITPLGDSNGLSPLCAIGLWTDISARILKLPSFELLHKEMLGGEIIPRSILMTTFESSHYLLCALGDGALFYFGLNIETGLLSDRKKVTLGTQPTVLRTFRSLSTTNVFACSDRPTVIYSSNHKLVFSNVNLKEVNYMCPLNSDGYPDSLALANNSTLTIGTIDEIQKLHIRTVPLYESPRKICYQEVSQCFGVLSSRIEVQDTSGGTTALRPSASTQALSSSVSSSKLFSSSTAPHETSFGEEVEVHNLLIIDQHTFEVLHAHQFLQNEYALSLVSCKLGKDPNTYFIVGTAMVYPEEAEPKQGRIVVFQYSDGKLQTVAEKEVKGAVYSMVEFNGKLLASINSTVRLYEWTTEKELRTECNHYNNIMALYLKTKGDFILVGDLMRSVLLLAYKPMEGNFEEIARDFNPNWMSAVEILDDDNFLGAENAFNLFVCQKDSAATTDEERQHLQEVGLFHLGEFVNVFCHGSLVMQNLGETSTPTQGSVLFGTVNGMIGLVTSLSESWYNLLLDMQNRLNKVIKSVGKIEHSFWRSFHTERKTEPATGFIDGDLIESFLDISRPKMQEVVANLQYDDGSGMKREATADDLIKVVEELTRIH

SMILES	Dmax at 25 µM [1] [%]	remaining activity at 25 µM [2] [%]	DC50 [3] [nM]	Dmax (HEK-293T, read-out: % degradation of WIZ (100 − Amax)) [%]	remaining activity (HEK-293T, read-out: WIZ Amax) [%]	DC50 (read-out: WIZ AC50; WIZ HiBit assay in 293T cells; 10-point, 5-fold dose response, highest concentration 25 μM, about 18 hours) [nM]
O=C1CCN(c2cnn3ccc(CN4CCN(CC5CCCC5)CC4)cc23)C(=O)N1 [Example 159]	81	19	23			
CCCN1CCN(Cc2ccn3ncc(N4CCC(=O)NC4=O)c3c2)CC1 [Example 163]	76	24	561			
O=C1CCN(c2cnn3ccc(CN4CCN(Cc5ccccc5)CC4)cc23)C(=O)N1 [Example 165]	69	31	198			
CC(C)(F)CN1CCN(Cc2ccn3ncc(N4CCC(=O)NC4=O)c3c2)CC1 [Example 169]	55	45	326			
O=C1CCN(c2cnn3ccc(CN4CCN(Cc5cccc(F)c5)CC4)cc23)C(=O)N1 [Example 170]	53	47	228			
O=C1CCN(c2cnn3ccc(CN4CCN(CC(F)(F)F)CC4)cc23)C(=O)N1 [Example 171]	52	48	981			
O=C1CCN(c2cnn3ccc(CN4CCN(CC5(C(F)(F)F)CC5)CC4)cc23)C(=O)N1 [Example 172]	42	58	527			
O=C1CCN(c2cnn3ccc(CN4CCN(CC(F)(F)C(F)F)CC4)cc23)C(=O)N1 [Example 173]	42	58	771			
CC(c1cccnc1)N1CCN(Cc2ccn3ncc(N4CCC(=O)NC4=O)c3c2)CC1 (stereo not drawn) [Example 175]	40	60	1240			
O=C1CCN(c2cnn3ccc(CN4CCN(Cc5ccncc5)CC4)cc23)C(=O)N1 [Example 176]	38	62	1400			
O=C1CCN(c2cnn3ccc(CN4CCN(CCc5ccccc5)CC4)cc23)C(=O)N1 [Example 178]	76	24	48			
CO[C@H]1CC[C@@H](CN2CCN(Cc3ccn4ncc(N5CCC(=O)NC5=O)c4c3)CC2)CC1 [Example 180, 1-(5-((4-(((1s,4s)-4-methoxycyclohexyl)methyl)piperazin-1-yl)methyl)pyrazolo[1,5-a]pyridin-3-yl)dihydropyrimidine-2,4(1H,3H)-dione]	81	19	78			
CC(C)(C1CCC(F)(F)CC1)N1CCN(Cc2ccn3ncc(N4CCC(=O)NC4=O)c3c2)CC1 [Example 181, 1-(5-((4-(2-(4,4-difluorocyclohexyl)propan-2-yl)piperazin-1-yl)methyl)pyrazolo[1,5-a]pyridin-3-yl)dihydropyrimidine-2,4(1H,3H)-dione]				75	25	30
CC(C)(C1CCOCC1)N1CCN(Cc2ccn3ncc(N4CCC(=O)NC4=O)c3c2)CC1 [Example 182, 1-(5-((4-(2-(tetrahydro-2H-pyran-4-yl)propan-2-yl)piperazin-1-yl)methyl)pyrazolo[1,5-a]pyridin-3-yl)dihydropyrimidine-2,4(1H,3H)-dione]	67	33	199			
O=C1CCN(c2cnn3ccc(CN4CCN(C(=O)C5(C(F)(F)F)CC5)CC4)cc23)C(=O)N1 [Example 184, 1-(5-((4-(1-(trifluoromethyl)cyclopropane-1-carbonyl)piperazin-1-yl)methyl)pyrazolo[1,5-a]pyridin-3-yl)dihydropyrimidine-2,4(1H,3H)-dione]	29	71	1630			
CC(C)S(=O)(=O)N1CCN(Cc2ccn3ncc(N4CCC(=O)NC4=O)c3c2)CC1 [Example 185, 1-(5-((4-(isopropylsulfonyl)piperazin-1-yl)methyl)pyrazolo[1,5-a]pyridin-3-yl)dihydropyrimidine-2,4(1H,3H)-dione]	47	53	582			
O=C1CCN(c2cnn3ccc(CN4CCN(CCC5CCCCC5)CC4)cc23)C(=O)N1 [Example 187, 1-(5-((4-(2-cyclohexylethyl)piperazin-1-yl)methyl)pyrazolo[1,5-a]pyridin-3-yl)dihydropyrimidine-2,4(1H,3H)-dione]	80	20	20			
O=C1CCN(c2cnn3ccc(CN4CCN(CC5CC5)CC4)cc23)C(=O)N1 [Example 189, 1-(5-((4-(cyclopropylmethyl)piperazin-1-yl)methyl)pyrazolo[1,5-a]pyridin-3-yl)dihydropyrimidine-2,4(1H,3H)-dione]	71	29	191			

More lines, main results first:

Dmax at 25 µM [1] [%]	remaining activity at 25 µM [2] [%]	DC50 [3] [nM]	SMILES	Dmax (HEK-293T, read-out: % degradation of WIZ (100 − Amax)) [%]	remaining activity (HEK-293T, read-out: WIZ Amax) [%]	DC50 (read-out: WIZ AC50; WIZ HiBit assay in 293T cells; 10-point, 5-fold dose response, highest concentration 25 μM, about 18 hours) [nM]
80	20	115	O=C1CCN(c2cnn3ccc(CN4CCN(CCC5CCOCC5)CC4)cc23)C(=O)N1 [Example 161]			
79	21	79	O=C1CCN(c2cnn3ccc(CN4CCN(CC5CCCOC5)CC4)cc23)C(=O)N1 (stereo not drawn) [Example 162]			
69	31	323	CCC(CC)N1CCN(Cc2ccn3ncc(N4CCC(=O)NC4=O)c3c2)CC1 [Example 164]			
66	34	632	CC(C)N1CCN(Cc2ccn3ncc(N4CCC(=O)NC4=O)c3c2)CC1 [Example 166]			
57	43	286	Cc1ccccc1CN1CCN(Cc2ccn3ncc(N4CCC(=O)NC4=O)c3c2)CC1 [Example 167]			
56	44	127	O=C1CCN(c2cnn3ccc(CN4CCN(Cc5ccc(F)cc5)CC4)cc23)C(=O)N1 [Example 168]			
81	19	95	O=C1CCN(c2cnn3ccc(CN4CCN(CC5CC(F)(F)C5)CC4)cc23)C(=O)N1 [Example 174]			
77	23	106	O=C1CCN(c2cnn3ccc(CN4CCN(CC5CCOC5)CC4)cc23)C(=O)N1 (stereo not drawn) [Example 177]			
65	35	468	CC(C)(O)CN1CCN(Cc2ccn3ncc(N4CCC(=O)NC4=O)c3c2)CC1 [Example 183, 1-(5-((4-(2-hydroxy-2-methylpropyl)piperazin-1-yl)methyl)pyrazolo[1,5-a]pyridin-3-yl)dihydropyrimidine-2,4(1H,3H)-dione]			
79	21	76	CC(C)CN1CCN(Cc2ccn3ncc(N4CCC(=O)NC4=O)c3c2)CC1 [Example 186, 1-(5-((4-isobutylpiperazin-1-yl)methyl)pyrazolo[1,5-a]pyridin-3-yl)dihydropyrimidine-2,4(1H,3H)-dione]			
77	23	71	O=C1CCN(c2cnn3ccc(CN4CCN(CC5CCC5)CC4)cc23)C(=O)N1 [Example 188, 1-(5-((4-(cyclobutylmethyl)piperazin-1-yl)methyl)pyrazolo[1,5-a]pyridin-3-yl)dihydropyrimidine-2,4(1H,3H)-dione]			
